Test results reported in US20200390755A1, “COMPOUND FOR TREATING NERVOUS SYSTEM DISEASES AND USE THEREOF” (SHAANXI MICOT TECHNOLOGY CO., LTD., priority 2018, published 2020).

Experiments:
N171-82Q HD mice = experiment: Immunohistochemical analysis of mHtt protein aggregates in neurocortex (EM48); type: in vivo, mouse; details: 5 mg/kg/d until 25 weeks, six visual fields, n = 3
Protocol: (§1) 7-week-old N171-82Q HD male mice were paired with female B6C3F1/J hybrid mice to obtain newborn mice. From 21 days of age, male mice were housed in separate cages. 0.5 cm of mouse tail tissue was removed to extract DNA to determine the genotype of the mouse, such that N171-82Q HD mice and WT mice needed for the experiment were obtained. The mice were randomly divided into WT Vehicle group (normal mice), WT test compound group (administration group of normal mice, 5 mg/kg/d, n=10), HD Vehicle group (blank group of HD mice, n=15), HD test compound group (administration groups 1-5 of HD mice, 5 mg/kg/d, n=10). The test compound was suspended in 1% CMC-Na solution and administered by intragastric administration until the end of the study. The weights of the mice were measured every week. Behavioral tests were performed at 12 weeks, 18 weeks, and 24 weeks of age to investigate motor function. At 20 weeks, 3 samples of tissue from each group were used for western blotting and immunohistochemistry. At 24 weeks, MRI scans were performed. At the end of the study, the effect of the test compound on the mortality of mice was evaluated.
After the behavioral evaluation of the mice in each experimental group was completed and the administration continued until 25 weeks, 3 mice were taken from each group for […]. The right brain isolated from the mice was post-fixed in 4% paraformaldehyde for 24 h. The post-fixed brain tissue was put into 30% sucrose solution to allow it to sink to the bottom, and then brain slices with a thickness of 35 m were cut along the crown with a freezing microtome and placed in DPBS for storage. The stored brain slices were rinsed once with PBS, and blocked with 1 mL goat serum+9 mL PBS+1% TritonX-100 at room temperature on a shaker for 2˜3 h. After blocking, the brain slices were rinsed for 3 times with PBS, 5 min each time. Brain slices were taken out with a small brush and placed in a 24-well plate with primary antibody (anti-Huntingtin, clone mEM48, 1:25, mouse, prepared with blocking solution) for overnight incubation on a shaker in cold room at […]. After washing with PBS, brain slices were placed in a 24-well plate with secondary antibody (555, anti-mouse) for washing, and incubated on a shaker at room temperature for 2 h. After washing with PBS, brain slices was placed in a 24-well plate containing 800 μL DAPI (prepared with PBS, 1:10000) for staining on a shaker at room temperature for 10 min. The brain slices were taken out and placed in a 24-well plate containing 800 μL of PBS for washing on a shaker at room temperature for 10 min. The slide was placed flat on the experimental table with the front side facing upwards, and PBS was added dropwise on the slide to expand the brain slice in PBS. After drying, the mHtt protein was immunofluorescently stained with EM48 antibody (anti-Huntingtin) and photographed for observation.
After immunofluorescence staining of brain tissue, cells with mHtt protein aggregation in six visual fields in the right neurocortex were counted, and the average value was taken for analysis and statistics. A representative image of a neurocortex immunostained with the EM48 antibody for test compound example 1 is shown in FIG. 5, in which the scale bars are 50 μm, and the light-colored dots are cells with mHtt protein aggregation.

WT mice = experiment: In vivo MRI scan and brain volume measurement, WT mice; design: species or system mouse; details: 5 mg/kg/d, administered until 24 weeks, n = 4
Protocol: as §1, with “evaluated. The WT Vehicle group, WT test compound group, HD Vehicle group and HD test compound group were administered until 24 weeks, and 4 mice in each group were taken for in vivo MRI scanning and brain volume measurement. A 9.4 T MRI scanner equipped with three-axis gradient and animal imaging probes was used. The mice were anesthetized with 1% isoflurane. The breath of mice was monitored, and constant temperature was maintained throughout the scan. Three-dimensional T2 weighted fast spin echo sequence technology was used to obtain images. The imaging resolution and contrast of this technology were sufficient to automatically describe the volume of the mouse brain and substructures. […] These transformations encoded morphological differences between images and analyzed based on deformation morphological measurements (DBM) to detect regional changes in brain volume. The volume of the whole brain (Brain), […] was analyzed. […]” for “evaluated.”

## CN(C)C1CCN(c2ccc(-c3cc(=O)c4ccc(O)c(O)c4o3)cc2)CC1 [Example 3, 2-(4-(4-(dimethylamino)piperidin-1-yl)phenyl)-7,8-dihydroxy-4H-chromen-4-one]
N171-82Q HD mice
  Average number of cells with mHtt protein aggregation: 148.794 ± 10.157

## O=c1cc(-c2ccc(N3CCCCC3)cc2)oc2c(O)c(O)ccc12 [Example 1, 7,8-dihydroxy-2-(4-(piperidin-1-yl)phenyl)-4H-chromen-4-one]
WT mice
  MRI volume, Neurocortex: 20.11 ± 0.377 mm^3
  MRI volume, Striatum: 88.99 ± 0.985 mm^3
  MRI volume, Whole brain: 489.08 ± 7.14 mm^3
N171-82Q HD mice
  Average number of cells with mHtt protein aggregation: 152.500 ± 7.920

## COc1ccc2c(=O)cc(-c3ccc(N4CCCCC4)cc3)oc2c1OC [Example 2, 7,8-dimethoxy-2-(4-(piperidin-1-yl)phenyl)-4H-chromen-4-one]
N171-82Q HD mice
  Average number of cells with mHtt protein aggregation: 158.449 ± 13.260

## CC1CC(C)CN(c2ccc(-c3cc(=O)c4ccc(O)c(O)c4o3)cc2)C1 (centres unmarked) [Example 5, 2-(4-(3,5-dimethylpiperidin-1-yl)phenyl)-7,8-dihydroxy-4H-chromen-4-one]
N171-82Q HD mice
  Average number of cells with mHtt protein aggregation: 151.687 ± 8.365

## CC1(C)CCN(c2ccc(-c3cc(=O)c4ccc(O)c(O)c4o3)cc2)CC1 [Example 4, 2-(4-(4,4-dimethylpiperidin-1-yl)phenyl)-7,8-dihydroxy-4H-chromen-4-one]
N171-82Q HD mice
  Average number of cells with mHtt protein aggregation: 155.286 ± 9.567
